Several values for one entry are separate records, joined by “and”; a condition that tells them apart may be missing. Identical values can stand only once. Like-named read-outs stand apart in the source and are kept apart here.

Results on 52 molecules are retold here after patent US6143780A, “N-arylmethylthioanilide compounds useful for the inhibition of the replication of HIV” (Uniroyal Chemical Company, Inc., priority 1999, dated 2000).

The test system of the assay is HIV-1 (IIIB). The assay can be described thus: inhibition of HIV-1(IIIB) (WT) induced syncytium formation in CEM cells. The format is cell-based. As to conditions: Table 2, day 4 post infection, replicate values, read-out: EC50, Activity Against HIV-1 (IIIB). From the text:
CEM cells were obtained from the American Tissue Cell Culture Collection (Rockville, Md.) . HIV-1 (IIIB) was originally obtained from the culture supernatant of persistently HIV-1-infected H9 cells and was provided by R. C. Gallo and M. Popovic (National Cancer Institute, National Institutes of Health, Bethesda, Md.).
CEM cells were suspended at ≈300,000 cells per ml of culture medium and infected with approximately 100 CCID50 (CCID50 being the 50% cell culture infective dose) of HIV-1(IIIB) (designated as "WT" in Table 3) or one of the HIV-1 RT mutant strains described above. Then 100 μl of the infected cell suspensions was added to 200 μl microtiter plate wells containing 100 μl of appropriate serial (5-fold) dilutions of the test compounds. The inhibitiory effect of the test compounds on HIV-1 induced syncytium formation in CEM cells was examined microscopically on day 4 post infection. The 50% effective concentration (EC50) was defined as the test compound concentration that inhibits syncytium formation in the HIV-1-infected cell cultures by 50%.

Setting [1] is: Human immunodeficiency virus 1, IIIB, CCRF-CEM, 96 h.

Usually EC50 stands for the concentration needed to bring the measured effect to its halfway point. As to `Cc1occc1C(=O)Nc1ccc(Cl)c(CSc2ccccc2F)c1` [Compound 72], the half-maximal effective concentration (EC50) was 14900 nM and 12100 nM.

Regarding `Cc1occc1COc1cc(NC(=O)c2ccoc2C)ccc1Cl` [Compound 82], the EC50 is 1460 nM and 3150 nM and 2430 nM.

As for `Cc1occc1C(=O)Nc1ccc(Cl)c(CSc2ccccn2)c1` [Compound 79], the half-maximal effective concentration (EC50) was 2830 nM and 2990 nM and 3300 nM and 1650 nM and 614 nM.

For the molecule `Cc1occc1C(=O)Nc1ccc(Cl)c(OCc2ccccc2F)c1` [Compound 69], the EC50 was 359 nM and 317 nM and 244 nM.

As for `CC(=O)c1ccccc1OCc1cc(NC(=S)c2ccoc2C)ccc1Cl` [Compound 54], the EC50 is 6670 nM and 15300 nM.

`COC(=O)c1sccc1OCc1cc(NC(=O)c2ccoc2C)ccc1Cl` [Compound 73]: the EC50 is 131000 nM and 21200 nM.

Regarding `Cc1occc1C(=S)Nc1ccc(Cl)c(CSc2ccncc2)c1` [Compound 83], the EC50 was 13300 nM and 12100 nM. In addition, the EC50 under setting [1] is 16500 nM.

As to `Cc1occc1C(=O)Nc1ccc(Cl)c(COc2c(F)c(F)cc(F)c2F)c1` [Compound 58], the concentration giving a half-maximal response (EC50) came out at 281 nM. For the same molecule, the EC50 under setting [1] worked out at 475 nM.

`Cc1occc1C(=O)Nc1ccc(Cl)c(COc2ccc(F)cc2)c1` [Compound 10]: the EC50 is 4260 nM. Also, the EC50 under setting [1] worked out at 4150 nM.

On to `Cc1occc1C(=O)Nc1ccc(Cl)c(COc2ccccc2C#N)c1` [Compound 29], for which the EC50 is 3480 nM and 3400 nM and 3100 nM and 3760 nM. Moreover, the EC50 under setting [1] is 3390 nM.

With `Cc1occc1C(=O)Nc1ccc(Cl)c(COc2ccc(F)cc2Cl)c1` [Compound 42], the EC50 was 4660 nM and 18200 nM.

Take `Cc1occc1C(=O)Nc1ccc(Cl)c(COc2ccccc2[N+](=O)[O-])c1` [Compound 13]: the EC50 was 301 nM and 208 nM and 358 nM.

With `COC(=O)c1sccc1OCc1cc(NC(=S)c2ccoc2C)ccc1Cl` [Compound 74], the EC50 was 270 nM and 131 nM and 147 nM.

`COc1cccc(F)c1OCc1cc(NC(=O)c2ccoc2C)ccc1Cl` [Compound 31]: the EC50 was 77.8 nM and 124 nM and 213 nM.

As for `Cc1occc1C(=S)Nc1ccc(Cl)c(CSc2ccccc2F)c1` [Compound 71], the half-maximal effective concentration (EC50) was 342 nM and 128 nM and 396 nM.

As to `Cc1occc1C(=S)Nc1ccc(Cl)c(COc2ccccc2C=NN(C)C)c1` [Compound 57], the EC50 is 214 nM and 76.6 nM and 79.2 nM.

For the molecule `Cc1occc1C(=O)Nc1ccc(Br)c(COc2ccccc2C(F)(F)F)c1` [Compound 62], the EC50 is 195 nM and 817 nM and 552 nM and 793 nM and 554 nM.

`Cc1occc1C(=S)Nc1ccc(Cl)c(COc2ccccc2)c1` [Compound 2]: the EC50 is 228 nM and 161 nM and 98.6 nM and 67.6 nM.

In the case of `CCc1ccccc1OCc1cc(NC(=O)c2ccoc2C)ccc1Cl` [Compound 38], the EC50 was 2880 nM and 1450 nM.

For the molecule `CC(=O)Oc1ccccc1OCc1cc(NC(=S)c2ccoc2C)ccc1Cl` [Compound 33], the EC50 was 1390 nM and 2830 nM and 2670 nM.

With `Cc1occc1C(=S)Nc1ccc(Cl)c(COc2cccnc2)c1` [Compound 85], the EC50 was 211 nM. Under setting [1], the EC50 was determined as 151 nM.

Consider `Cc1occc1C(=O)Nc1ccc(Cl)c(COc2c(F)cccc2F)c1` [Compound 20], for which the EC50 amounted to 799 nM. Also, the EC50 under setting [1] was found to be 496 nM.

For `Cc1occc1C(=O)Nc1ccc(Cl)c(COc2ccccc2)c1` [Compound 1], the EC50 was 2380 nM and 1550 nM and 4810 nM.

On to `CCOc1ccccc1OCc1cc(NC(=S)c2ccoc2C)ccc1Cl` [Compound 36], for which the EC50 was 377 nM and 124 nM and 788 nM.

`Cc1occc1C(=S)Nc1ccc(Cl)c(COc2ccccc2-c2ccccc2)c1` [Compound 48]: the concentration for a half-maximal effect (EC50) was 3110 nM and 2750 nM and 5410 nM.

Turning to `CCON=Cc1ccccc1OCc1cc(NC(=S)c2ccoc2C)ccc1Cl` [Compound 50], the EC50 is 1070 nM.

In the case of `Cc1occc1C(=S)Nc1ccc(Cl)c(COc2c(F)c(F)cc(F)c2F)c1` [Compound 60], the EC50 is 10.6 nM and 4.62 nM.

With `Cc1occc1COc1cc(NC(=S)c2ccoc2C)ccc1Cl` [Compound 84], the EC50 was 66.1 nM and 255 nM.

For the molecule `Cc1occc1C(=O)Nc1ccc(Cl)c(COc2ccccc2F)c1` [Compound 14], the EC50 is 771 nM and 395 nM and 255 nM.

For the molecule `Cc1occc1C(=S)Nc1ccc(Cl)c(COc2ccccc2C(C)(C)C)c1` [Compound 49], the EC50 was 384 nM and 599 nM and 1130 nM.

As for `Cc1occc1C(=S)Nc1ccc(Cl)c(CSc2ccccn2)c1` [Compound 80], the EC50 came out at 150 nM. Also, the EC50 under setting [1] amounted to 218 nM.

Take `Cc1occc1C(=S)Nc1ccc(Cl)c(OCc2sccc2Br)c1` [Compound 76]: the EC50 is 95.2 nM. Moreover, the EC50 under setting [1] is 86.1 nM.

As for `Cc1occc1C(=O)Nc1ccc(Cl)c(COc2c(F)ccc(F)c2F)c1` [Compound 39], the EC50 was 102 nM and 50.7 nM and 113 nM.

On to `Cc1occc1C(=O)Nc1ccc(Br)c(COc2c(F)ccc(F)c2F)c1` [Compound 61], for which, under setting [1], the EC50 amounted to 2.05 nM.

Turning to `Cc1occc1C(=O)Nc1ccc(Cl)c(OCc2sccc2Br)c1` [Compound 75], the EC50 was 588 nM and 1500 nM and 2600 nM.

On to `Cc1ccccc1OCc1cc(NC(=O)c2ccoc2C)ccc1Cl` [Compound 9], for which the EC50 is 13500 nM and 35000 nM.

Take `Cc1occc1C(=O)Nc1ccc(Cl)c(COc2cccc([N+](=O)[O-])c2)c1` [Compound 26]: the EC50 was 4140 nM and 3660 nM. Further, the EC50 under setting [1] came to 4610 nM.

With `COc1cccc(OC)c1OCc1cc(NC(=S)c2ccoc2C)ccc1Cl` [Compound 28], the EC50 is 6710 nM and 7560 nM and 19600 nM and 10100 nM and 11000 nM.

As to `COc1cccc(F)c1OCc1cc(NC(=O)c2ccoc2C)ccc1Br` [Compound 63], the EC50 came to 7.55 nM. In addition, the EC50 under setting [1] was 7.45 nM.

For `Cc1occc1C(=S)Nc1ccc(Br)c(COc2ccccc2C(F)(F)F)c1` [Compound 65], the EC50 amounted to 0.281 nM. Moreover, under setting [1], the EC50 was 0.29 nM.

As for `Cc1occc1C(=S)Nc1ccc(Cl)c(OCc2ccccc2F)c1` [Compound 70], the EC50 came to 9.67 nM. The EC50 under setting [1] was determined as 12.2 nM.

As to `COC(=O)c1ccccc1OCc1cc(NC(=S)c2ccoc2C)ccc1Cl` [Compound 51], the EC50 is 1000 nM and 226 nM and 915 nM and 568 nM.

Turning to `Cc1occc1C(=O)Nc1ccc(Cl)c(COc2cccnc2)c1` [Compound 81], the EC50 was 5500 nM and 3690 nM.

On to `CCCOc1ccccc1OCc1cc(NC(=S)c2ccoc2C)ccc1Cl` [Compound 55], for which the EC50 was 10000 nM and 9000 nM and 3730 nM and 4260 nM.

On to `Cc1occc1C(=S)Nc1ccc(Cl)c(CS(=O)(=O)c2ccccc2Cl)c1` [Compound 77], for which the EC50 is 251 nM and 299 nM and 1110 nM.

As for `Cc1occc1C(=O)Nc1ccc(Cl)c(COc2ccccc2C(F)(F)F)c1` [Compound 41], the EC50 was 761 nM and 1110 nM.

For `Cc1occc1C(=S)Nc1ccc(Cl)c(COc2c(F)c(F)c(F)c(F)c2F)c1` [Compound 59], the EC50 was 117 nM. Further, under setting [1], the EC50 was determined as 199 nM.

With `Cc1occc1C(=O)Nc1ccc(Cl)c(COc2ccccc2Br)c1` [Compound 35], the EC50 is 2290 nM and 3140 nM and 1230 nM.

For `Cc1occc1C(=S)Nc1ccc(Cl)c(CSc2ncccn2)c1` [Compound 78], the EC50 was 302 nM and 696 nM and 375 nM.

In the case of `CC(=NN(C)C)c1ccccc1OCc1cc(NC(=O)c2ccoc2C)ccc1Cl` [Compound 56], the EC50 is 2910 nM and 3580 nM. For the same molecule, the EC50 under setting [1] stood at 2230 nM.

For the molecule `Cc1occc1C(=O)Nc1ccc(Cl)c(COc2ccccc2N)c1` [Compound 52], the EC50 was 13700 nM and 16200 nM.

`COc1ccccc1OCc1cc(NC(=O)c2ccoc2C)ccc1Cl` [Compound 12]: the EC50 is 488 nM and 379 nM and 899 nM.
